The subject of this test is HLA-A*24. The test can be described thus: MHC binding assay, UV-ligand exchange with beta2m ELISA, HLA-A*24. Further details: species or system human. The conditions noted are these: binding to HLA-A*24 ranged by peptide exchange yield (UV-ligand exchange, beta2m ELISA). The source says:
Candidate peptides for T cell based therapies according to the present invention were further tested for their MHC binding capacity (affinity). The individual peptide-MHC complexes were produced by UV-ligand exchange, where a UV-sensitive peptide is cleaved upon UV-irradiation, and exchanged with the peptide of interest as analyzed. Only peptide candidates that can effectively bind and stabilize the peptide-receptive MHC molecules prevent dissociation of the MHC complexes. To determine the yield of the exchange reaction, an ELISA was performed based on the detection of the light chain (ß2 m) of stabilized MHC complexes. The assay was performed as generally described in Rodenko et al. (Rodenko et al., 2006).
96 well MAXISorp plates (NUNC) were coated over night with 2 ug/ml streptavidin in PBS at room temperature, washed 4× and blocked for 1 h at 37° C. in 2% BSA containing blocking buffer. […] Peptide-MHC monomers of the UV-exchange reaction were diluted 100 fold in blocking buffer. Samples were incubated for 1 h at 37° C., washed four times, incubated with 2 ug/ml HRP conjugated anti-β2 m for 1h at 37° C., washed again and detected with TMB solution that is stopped with […]. Absorption was measured at 450 nm. Candidate peptides that show a high exchange yield (preferably higher than 50%, most preferred higher than 75%) are generally preferred for a generation and production of antibodies or fragments thereof, and/or T cell receptors or fragments thereof, as they show sufficient avidity to the MHC molecules and prevent dissociation of the MHC complexes.
For orientation: In an ELISA, binding on a coated surface is turned into a signal by an enzyme label.
Consider “306 (VYPAEQPQI; listed as Homo sapiens) [compound 306]”, for which the Peptide exchange result is given as “+++ (50%-75% = +++)”.

Take “343 (NYLGGTSTI; listed as Homo sapiens) [compound 343]”: the Peptide exchange entry is “+++ (50%-75% = +++)”.

For “100 (VYIESRIGTSTSF; listed as Homo sapiens) [compound 100]”, the Peptide exchange entry is “+++ (50%-75% = +++)”.

For the substance “348 (IYLEHTESI; listed as Homo sapiens) [compound 348]”, the Peptide exchange entry is listed as “+++ (50%-75% = +++)”.

Turning to “210 (IYAGVGEFSF; listed as Homo sapiens) [compound 210]”, the Peptide exchange result was “++++ (>=75% = ++++)”.

On to “169 (NYITGKGDVF; listed as Homo sapiens) [compound 169]”, for which the Peptide exchange result is given as “+++ (50%-75% = +++)”.

Take “223 (TFITQSPLL; listed as Homo sapiens) [compound 223]”: the Peptide exchange result is recorded as “++++ (>=75% = ++++)”.

In the case of “141 (SYNGHLTIWF; listed as Homo sapiens) [compound 141]”, the Peptide exchange result was “+++ (50%-75% = +++)”.

For “265 (SYLNEAFSF; listed as Homo sapiens) [compound 265]”, the Peptide exchange result is “++++ (>=75% = ++++)”.

As to “237 (KYVGQLAVL; listed as Homo sapiens) [compound 237]”, the Peptide exchange result is “+++ (50%-75% = +++)”.

“184 (IYSVGAFENF; listed as Homo sapiens) [compound 184]”: the Peptide exchange entry is reported as “++++ (>=75% = ++++)”.

Regarding “388 (IYGEKTYAF; listed as Homo sapiens) [compound 388]”, the Peptide exchange result is “+++ (50%-75% = +++)”.

As for “364 (KYLNENQLSQL; listed as Homo sapiens) [compound 364]”, the Peptide exchange entry is “+++ (50%-75% = +++)”.

Consider “193 (LYLENNAQTQF; listed as Homo sapiens) [compound 193]”, for which the Peptide exchange result was “+++ (50%-75% = +++)”.

With “366 (QYLELAHSL; listed as Homo sapiens) [compound 366]”, the Peptide exchange entry is reported as “+++ (50%-75% = +++)”.

Consider “107 (KYFPYLVVI; listed as Homo sapiens) [compound 107]”, for which the Peptide exchange entry is reported as “+++ (50%-75% = +++)”.

In the case of “270 (YYSQESKVLYL; listed as Homo sapiens) [compound 270]”, the Peptide exchange entry is “+++ (50%-75% = +++)”.

Turning to “347 (VYAEVNSL; listed as Homo sapiens) [compound 347]”, the Peptide exchange result was “+++ (50%-75% = +++)”.

On to “307 (GYAFTLPLF; listed as Homo sapiens) [compound 307]”, for which the Peptide exchange entry was “+++ (50%-75% = +++)”.

For “199 (SYLNHLNNL; listed as Homo sapiens) [compound 199]”, the Peptide exchange result is “+++ (50%-75% = +++)”.

Take “119 (VYRVYVTTF; listed as Homo sapiens) [compound 119]”: the Peptide exchange result is reported as “+++ (50%-75% = +++)”.

In the case of “280 (TYNPNLQDKL; listed as Homo sapiens) [compound 280]”, the Peptide exchange result is recorded as “++++ (>=75% = ++++)”.

As for “146 (NYYERIHAL; listed as Homo sapiens) [compound 146]”, the Peptide exchange entry is reported as “+++ (50%-75% = +++)”.

For the substance “220 (SYSEIKDFL; listed as Homo sapiens) [compound 220]”, the Peptide exchange result is given as “++++ (>=75% = ++++)”.

With “123 (VYTPVLEHL; listed as Homo sapiens) [compound 123]”, the Peptide exchange result is reported as “++ (20%-49% = ++)”.

Take “283 (EYQEIFQQL; listed as Homo sapiens) [compound 283]”: the Peptide exchange entry is given as “+++ (50%-75% = +++)”.

Consider “341 (SYLTQHQRI; listed as Homo sapiens) [compound 341]”, for which the Peptide exchange result is recorded as “+++ (50%-75% = +++)”.

Take “296 (SYQVIFQHF; listed as Homo sapiens) [compound 296]”: the Peptide exchange entry is given as “++++ (>=75% = ++++)”.

On to “147 (LYLAFPLAF; listed as Homo sapiens) [compound 147]”, for which the Peptide exchange result is “+++ (50%-75% = +++)”.

As to “216 (FYVNVKEQF; listed as Homo sapiens) [compound 216]”, the Peptide exchange result was “+++ (50%-75% = +++)”.

“153 (VYVPFGGKSMITF; listed as Homo sapiens) [compound 153]”: the Peptide exchange result is listed as “++++ (>=75% = ++++)”.

Take “182 (AYAQLGYLLF; listed as Homo sapiens) [compound 182]”: the Peptide exchange result is “++++ (>=75% = ++++)”.

Regarding “351 (IFHEVPLKF; listed as Homo sapiens) [compound 351]”, the Peptide exchange entry is recorded as “+++ (50%-75% = +++)”.

For “302 (LYLPVHYGF; listed as Homo sapiens) [compound 302]”, the Peptide exchange result is listed as “+++ (50%-75% = +++)”.

In the case of “112 (IYNFVESKL; listed as Homo sapiens) [compound 112]”, the Peptide exchange entry is “+++ (50%-75% = +++)”.

Regarding “311 (EYLQNLNHI; listed as Homo sapiens) [compound 311]”, the Peptide exchange result is on record as “++++ (>=75% = ++++)”.

Take “282 (NYLVDPVTI; listed as Homo sapiens) [compound 282]”: the Peptide exchange result is “+++ (50%-75% = +++)”.

Consider “206 (NYLDVATFL; listed as Homo sapiens) [compound 206]”, for which the Peptide exchange result is “++++ (>=75% = ++++)”.

Turning to “236 (VYLPKIPSW; listed as Homo sapiens) [compound 236]”, the Peptide exchange result is recorded as “+++ (50%-75% = +++)”.

As for “298 (AYKSEVVYF; listed as Homo sapiens) [compound 298]”, the Peptide exchange result was “++++ (>=75% = ++++)”.

“170 (QYPFHVPLL; listed as Homo sapiens) [compound 170]”: the Peptide exchange entry is on record as “++++ (>=75% = ++++)”.

Turning to “263 (RYILENHDF; listed as Homo sapiens) [compound 263]”, the Peptide exchange entry is “+++ (50%-75% = +++)”.

Turning to “118 (KYLNSVQYI; listed as Homo sapiens) [compound 118]”, the Peptide exchange result was “+++ (50%-75% = +++)”.

Consider “140 (RYLINSYDF; listed as Homo sapiens) [compound 140]”, for which the Peptide exchange entry is “++++ (>=75% = ++++)”.

With “247 (SFTKTSPNF; listed as Homo sapiens) [compound 247]”, the Peptide exchange result is given as “+++ (50%-75% = +++)”.

On to “124 (TYKDYVDLF; listed as Homo sapiens) [compound 124]”, for which the Peptide exchange entry was “+ (<20% = +)”.

For “381 (KYPASSSVF; listed as Homo sapiens) [compound 381]”, the Peptide exchange result was “+++ (50%-75% = +++)”.

With “266 (KYTDWTEFL; listed as Homo sapiens) [compound 266]”, the Peptide exchange result was “+++ (50%-75% = +++)”.

As to “342 (NYAFLHRTL; listed as Homo sapiens) [compound 342]”, the Peptide exchange entry is “+++ (50%-75% = +++)”.

Regarding “370 (RFIGIPNQF; listed as Homo sapiens) [compound 370]”, the Peptide exchange result is “+++ (50%-75% = +++)”.

Consider “212 (SYAPPSEDLF; listed as Homo sapiens) [compound 212]”, for which the Peptide exchange entry is listed as “++ (20%-49% = ++)”.

On to “217 (IYISNSIYF; listed as Homo sapiens) [compound 217]”, for which the Peptide exchange result was “++++ (>=75% = ++++)”.

On to “350 (KYGNFIDKL; listed as Homo sapiens) [compound 350]”, for which the Peptide exchange result is on record as “+++ (50%-75% = +++)”.

These data come from patent publication US11541107B2, “Peptides and T cells for use in immunotherapeutic treatment of various cancers” (Immatics Biotechnologies GmbH, priority 2015, dated 2023).
